These are literature values, as cited in patent US7442558B2, “Phthalamide-lanthanide complexes for use as luminescent markers” (The Regents of the University of California, priority 1999, dated 2008).

For this data set the following is noted: in 0.05 M H2SO4; reference standard; cited from earlier work.

“And” between values parts separate entries of the source, which are not always exact repeats. Equal entries are not always repeated. Structures can show the parent of a compound that is named as a salt.

As for `C=C[C@H]1C[N@@]2CC[C@H]1C[C@H]2[C@H](O)c1ccnc2ccc(OC)cc12` [quinine sulfate], the absolute quantum yield is 0.54 and 0.5460.
